Laboratory results from patent publication US12685315B2, “Herbicidal combination” (UPL do Brasil Industria e Comercio de Insumos Agropecuarios …, priority 2019, dated 2026).

Tests used:
Assay type in all cases: in vivo
Digitaria insularis = experiment: Field trial of triple mixes of amicarbazone, post-emergence weed control; conditions: dose g ai/ha: Amicarbazone 75, S-metolachlor 300, Atrazine 250, mix 75 + 300 + 250
Description: (§1) Field trials were done to evaluate the efficacy and synergism of the triple mixes of amicarbazone with other herbicides for the control of weeds in pre and post-emergence application.
(§2) The composition of the present invention was applied. This test was performed for species of weeds: Grasses namely BRADC=Brachiaria decumbens, CCHEC=Cenchrus echinatus, ELEIN=Eleusine indica, TRCIN=Digitaria insularis and Broadleaves namely IAQGR=Ipomoea grandifolia, EPHHL=Euphorbia heterophylla, COMBE=Commelina benghalensis. Data were collected at various period after application of the composition to the soil and calculated.

Eleusine indica = experiment: Field trial of triple mixes of amicarbazone, pre and post-emergence weed control
Description: as §1, §2

[1] = tested on: Cenchrus echinatus (CCHEC); experiment: as above
Description: as §1, §2

[2] = tested on: Brachiaria decumbens (BRADC); experiment: as above
Description: as §1, §2

Commelina benghalensis = experiment: Field trial of triple mixes of amicarbazone, pre-emergence weed control; conditions: dose g ai/ha: Amicarbazone 75, Mesotrione 38, Ametryn 250, mix AMC + AME + MST 75 + 38 + 250
Description: as §1, §2

[3] = tested on: Ipomoea grandifolia (IAQGR); experiment: as above
Description: as §1, §2

Euphorbia heterophylla = experiment: as above; conditions: dose g ai/ha: Amicarbazone 250, Sulfentrazone 150, Diuron 250, mix 250 + 150 + 250
Description: as §1, §2

Q: How did the “% Control” value (Digitaria insularis; Table 9, 21 DAA) turn out when `CC(C)c1nn(C(=O)NC(C)(C)C)c(=O)n1N` [Amicarbazone] was run?
A: 7.5%

Q: And the “% Control” value (Digitaria insularis; Table 9, 28 DAA)?
A: 1.3%

Q: And the “% Control” value (Digitaria insularis; Table 9, 35 DAA)?
A: 0.5%

Q: And the “% Control” value (Eleusine indica; Table 8, Post-Emergence, 14 DAA, dose g ai/ha: Amicarbazone 250, Sulfentrazone 150, Diuron 250, mix 250 + 150 + 250)?
A: 13.8%

Q: And the “% Control” value (Eleusine indica; Table 8, Post-Emergence, 21 DAA, dose g ai/ha: Amicarbazone 250, Sulfentrazone 150, Diuron 250, mix 250 + 150 + 250)?
A: 16.3%

Q: And the “% Control” value (Eleusine indica; Table 8, Post-Emergence, 28 DAA, dose g ai/ha: Amicarbazone 250, Sulfentrazone 150, Diuron 250, mix 250 + 150 + 250)?
A: 13.8%

Q: What about the “% Control” value (Eleusine indica; Table 8, Pre-Emergence, 14 DAA, dose g ai/ha: Amicarbazone 250, Sulfentrazone 150, Diuron 250, mix 250 + 150 + 250) of the same molecule?
A: 68.8%

Q: What about the “% Control” value (Eleusine indica; Table 8, Pre-Emergence, 21 DAA, dose g ai/ha: Amicarbazone 250, Sulfentrazone 150, Diuron 250, mix 250 + 150 + 250) of the same molecule?
A: 92.0%

Q: What about the “% Control” value (Eleusine indica; Table 8, Pre-Emergence, 28 DAA, dose g ai/ha: Amicarbazone 250, Sulfentrazone 150, Diuron 250, mix 250 + 150 + 250) of the same molecule?
A: 87.0%

Q: What about the “% Control” value (Eleusine indica; Table 10, Post-Emergence, 14 DAA, dose g ai/ha: Amicarbazone 75, Mesotrione 38, Ametryn 250, mix AMC + AME + MST 75 + 38 + 250) of the same molecule?
A: 0.0%

Q: And the “% Control” value (Eleusine indica; Table 10, Post-Emergence, 21 DAA, dose g ai/ha: Amicarbazone 75, Mesotrione 38, Ametryn 250, mix AMC + AME + MST 75 + 38 + 250)?
A: 0.0%

Q: What about the “% Control” value (Eleusine indica; Table 10, Post-Emergence, 28 DAA, dose g ai/ha: Amicarbazone 75, Mesotrione 38, Ametryn 250, mix AMC + AME + MST 75 + 38 + 250) of the same molecule?
A: 0.0%

Q: What about the “% Control” value (Eleusine indica; Table 10, Pre-Emergence, 14 DAA, dose g ai/ha: Amicarbazone 75, Mesotrione 38, Ametryn 250, mix AMC + AME + MST 75 + 38 + 250) of the same molecule?
A: 0.0%

Q: What about the “% Control” value (Eleusine indica; Table 10, Pre-Emergence, 21 DAA, dose g ai/ha: Amicarbazone 75, Mesotrione 38, Ametryn 250, mix AMC + AME + MST 75 + 38 + 250) of the same molecule?
A: 0.0%

Q: And the “% Control” value (Eleusine indica; Table 10, Pre-Emergence, 28 DAA, dose g ai/ha: Amicarbazone 75, Mesotrione 38, Ametryn 250, mix AMC + AME + MST 75 + 38 + 250)?
A: 0.0%

Q: What about the “% Control” value ([1]; Table 2, Post-Emergence, 7 DAA, dose g ai/ha: Amicarbazone 75, Isoxaflutole 15, Atrazine 250, mix 75 + 15 + 250) of the same molecule?
A: 33.8%

Q: What about the “% Control” value ([1]; Table 2, Post-Emergence, 28 DAA, dose g ai/ha: Amicarbazone 75, Isoxaflutole 15, Atrazine 250, mix 75 + 15 + 250) of the same molecule?
A: 40.0%

Q: And the “% Control” value ([1]; Table 2, Post-Emergence, 35 DAA, dose g ai/ha: Amicarbazone 75, Isoxaflutole 15, Atrazine 250, mix 75 + 15 + 250)?
A: 36.3%

Q: What about the “% Control” value ([1]; Table 6, Post-Emergence, 21 DAA, dose g ai/ha: Amicarbazone 250, Sulfentrazone 150, Diuron 250, mix 250 + 150 + 250) of the same molecule?
A: 0.0%

Q: What about the “% Control” value ([1]; Table 6, Post-Emergence, 28 DAA, dose g ai/ha: Amicarbazone 250, Sulfentrazone 150, Diuron 250, mix 250 + 150 + 250) of the same molecule?
A: 0.0%

Q: What about the “% Control” value ([1]; Table 6, Post-Emergence, 35 DAA, dose g ai/ha: Amicarbazone 250, Sulfentrazone 150, Diuron 250, mix 250 + 150 + 250) of the same molecule?
A: 0.0%

Q: And the “% Control” value ([1]; Table 6, Pre-Emergence, 21 DAA, dose g ai/ha: Amicarbazone 250, Sulfentrazone 150, Diuron 250, mix 250 + 150 + 250)?
A: 7.5%

Q: And the “% Control” value ([1]; Table 6, Pre-Emergence, 28 DAA, dose g ai/ha: Amicarbazone 250, Sulfentrazone 150, Diuron 250, mix 250 + 150 + 250)?
A: 5.0%

Q: And the “% Control” value ([1]; Table 6, Pre-Emergence, 35 DAA, dose g ai/ha: Amicarbazone 250, Sulfentrazone 150, Diuron 250, mix 250 + 150 + 250)?
A: 3.3%

Q: What about the “% Control” value ([2]; Table 1, Post-Emergence, 7 DAA, dose g ai/ha: Amicarbazone 75, Isoxaflutole 15, Atrazine 250, mix 75 + 15 + 250) of the same molecule?
A: 43.8%

Q: And the “% Control” value ([2]; Table 1, Post-Emergence, 21 DAA, dose g ai/ha: Amicarbazone 75, Isoxaflutole 15, Atrazine 250, mix 75 + 15 + 250)?
A: 38.8%

Q: And the “% Control” value ([2]; Table 1, Post-Emergence, 28 DAA, dose g ai/ha: Amicarbazone 75, Isoxaflutole 15, Atrazine 250, mix 75 + 15 + 250)?
A: 40.0%

Q: What about the “% Control” value ([2]; Table 1, Pre-Emergence, 7 DAA, dose g ai/ha: Amicarbazone 75, Isoxaflutole 15, Atrazine 250, mix 75 + 15 + 250) of the same molecule?
A: 0.0%

Q: And the “% Control” value ([2]; Table 1, Pre-Emergence, 21 DAA, dose g ai/ha: Amicarbazone 75, Isoxaflutole 15, Atrazine 250, mix 75 + 15 + 250)?
A: 0.0%

Q: What about the “% Control” value ([2]; Table 1, Pre-Emergence, 28 DAA, dose g ai/ha: Amicarbazone 75, Isoxaflutole 15, Atrazine 250, mix 75 + 15 + 250) of the same molecule?
A: 0.0%

Q: And the “% Control” value ([2]; Table 5, Post-Emergence, 21 DAA, dose g ai/ha: Amicarbazone 250, Clomazone 250, Diuron 250, mix 250 + 250 + 250)?
A: 25.0%

Q: And the “% Control” value ([2]; Table 5, Post-Emergence, 28 DAA, dose g ai/ha: Amicarbazone 250, Clomazone 250, Diuron 250, mix 250 + 250 + 250)?
A: 16.3%

Q: And the “% Control” value ([2]; Table 5, Post-Emergence, 35 DAA, dose g ai/ha: Amicarbazone 250, Clomazone 250, Diuron 250, mix 250 + 250 + 250)?
A: 13.8%

Q: What about the “% Control” value ([2]; Table 5, Pre-Emergence, 21 DAA, dose g ai/ha: Amicarbazone 250, Clomazone 250, Diuron 250, mix 250 + 250 + 250) of the same molecule?
A: 63.8%

Q: What about the “% Control” value ([2]; Table 5, Pre-Emergence, 28 DAA, dose g ai/ha: Amicarbazone 250, Clomazone 250, Diuron 250, mix 250 + 250 + 250) of the same molecule?
A: 50.0%

Q: What about the “% Control” value ([2]; Table 5, Pre-Emergence, 35 DAA, dose g ai/ha: Amicarbazone 250, Clomazone 250, Diuron 250, mix 250 + 250 + 250) of the same molecule?
A: 46.3%

Q: And the “% Control” value (Commelina benghalensis; Table 11, 21 DAA)?
A: 8.8%

Q: And the “% Control” value (Commelina benghalensis; Table 11, 28 DAA)?
A: 7.3%

Q: What about the “% Control” value (Commelina benghalensis; Table 11, 35 DAA) of the same molecule?
A: 6.8%

Q: What about the “% Control” value ([3]; Table 3, 14 DAA, dose g ai/ha: Amicarbazone 75, Isoxaflutole 15, Atrazine 250, mix 75 + 15 + 250) of the same molecule?
A: 11.3%

Q: What about the “% Control” value ([3]; Table 3, 21 DAA, dose g ai/ha: Amicarbazone 75, Isoxaflutole 15, Atrazine 250, mix 75 + 15 + 250) of the same molecule?
A: 0.0%

Q: What about the “% Control” value ([3]; Table 3, 28 DAA, dose g ai/ha: Amicarbazone 75, Isoxaflutole 15, Atrazine 250, mix 75 + 15 + 250) of the same molecule?
A: 0.0%

Q: And the “% Control” value ([3]; Table 4, 7 DAA, dose g ai/ha: Amicarbazone 250, Clomazone 250, Diuron 250, mix 250 + 250 + 250)?
A: 18.8%

Q: What about the “% Control” value ([3]; Table 4, 14 DAA, dose g ai/ha: Amicarbazone 250, Clomazone 250, Diuron 250, mix 250 + 250 + 250) of the same molecule?
A: 73.8%

Q: What about the “% Control” value ([3]; Table 4, 28 DAA, dose g ai/ha: Amicarbazone 250, Clomazone 250, Diuron 250, mix 250 + 250 + 250) of the same molecule?
A: 86.5%

Q: What about the “% Control” value (Euphorbia heterophylla; Table 7, 7 DAA) of the same molecule?
A: 3.8%

Q: What about the “% Control” value (Euphorbia heterophylla; Table 7, 14 DAA) of the same molecule?
A: 28.8%

Q: And the “% Control” value (Euphorbia heterophylla; Table 7, 21 DAA)?
A: 56.3%
